Data as given in patent publication US20080286357A1, “MULTI-FUNCTIONAL PARTICULATE DELIVERY SYSTEM FOR PHARMACOLOGICALLY ACTIVE INGREDIENTS” (Balchem Corporation, priority 2007, published 2008).

Assay: Flow and bulk density of powder blend
Assay type: physicochemical
Description: The procedure is described in USP<616<Bulk Density and Tapped Density.
CabOSil with ubidecarenone is co-sieved through a 30-mesh. The ProSolv HD90 and multi-functional particulate system are added. The powder mix is blended at maximum speed for ten minutes. The powder mix is then sieved through a 40-mesh. Polyplasdone Crospovidone is added, and the mixture is blended at maximum speed for two minutes Finally, Mg-stearate is added, and the mixture is blended at maximum speed for two minutes.

## COC1=C(OC)C(=O)C(C/C=C(\C)CC/C=C(\C)CC/C=C(\C)CC/C=C(\C)CC/C=C(\C)CC/C=C(\C)CC/C=C(\C)CC/C=C(\C)CC/C=C(\C)CCC=C(C)C)=C(C)C1=O [Ubidecarenone]
  flow (in words): does not flow
